Laboratory results as given in PubChem BioAssay (NCI).
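1) Cells in 96-well plates. 2) Compound, 48 h, 5 concentrations. 3) Linear interpolation between surrounding doses. 4) Unreached endpoint = highest concentration. The concentration for full growth arrest is given as TGI.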

Legend:
Assay in all cases: DTP human tumour cell line panel, 48 h
[1] = tested on: M14 melanoma
[2] = tested on: HCT-116 colon
[3] = tested on: HT29 colon
[4] = tested on: SK-MEL-2 melanoma
[5] = tested on: ACHN renal
[6] = tested on: UO-31 renal
[7] = tested on: DLD-1 colon
[8] = tested on: RPMI-8226 leukemia
[9] = tested on: MALME-3M melanoma
[10] = tested on: EKVX NSCLC
[11] = tested on: XF 498 CNS
[12] = tested on: SN12C renal
[13] = tested on: NCI-H522 lung
[14] = tested on: NCI-H460 lung
[15] = tested on: UACC-257 melanoma
[16] = tested on: LOX IMVI melanoma
[17] = tested on: SR leukemia
[18] = tested on: OVCAR-5 ovarian
[19] = tested on: RXF 393 renal
[20] = tested on: SF-539 CNS
[21] = tested on: LXFL 529 NSCLC
[22] = tested on: A498 renal
[23] = tested on: SNB-19 CNS
[24] = tested on: TK-10 renal
[25] = tested on: OVCAR-3 ovarian
[26] = tested on: OVCAR-4 ovarian
[27] = tested on: UACC-62 melanoma
[28] = tested on: CCRF-CEM leukemia
[29] = tested on: SK-MEL-28 melanoma
[30] = tested on: SNB-78 CNS
[31] = tested on: MOLT-4 leukemia
[32] = tested on: K-562 leukemia
[33] = tested on: NCI-H23 lung
[34] = tested on: HOP-62 NSCLC
[35] = tested on: HL-60(TB) leukemia
[36] = tested on: M19-MEL melanoma
[37] = tested on: SF-268 CNS
[38] = tested on: SNB-75 CNS
[39] = tested on: DMS 114 small cell lung
[40] = tested on: HCC-2998 colon
[41] = tested on: KM12 colon
[42] = tested on: U251 CNS
[43] = tested on: SK-OV-3 ovarian
[44] = tested on: A549 NSCLC
[45] = tested on: SF-295 CNS
[46] = tested on: KM20L2 colon
[47] = tested on: IGROV1 ovarian
[48] = tested on: SK-MEL-5 melanoma
[49] = tested on: SW-620 colon
[50] = tested on: COLO 205 colon
[51] = tested on: OVCAR-8 ovarian
[52] = tested on: HOP-92 NSCLC
[53] = tested on: HCT-15 colon
[54] = tested on: 786-0 renal
[55] = tested on: NCI-H226 lung
[56] = tested on: HOP-18 NSCLC
[57] = tested on: DMS 273 small cell lung
[58] = tested on: CAKI-1 renal

Measured: TGI

O=S(O)CCCCCSSc1ccccc1
34.2 µM: [31]
88.1 µM: [35]
42 µM: [13]
53.3 µM: [4]
89.2 µM: [19]
38.4 µM: [16]
72.3 µM: [11]
37.9 µM: [21]
79.9 µM: [27]
85.5 µM: [37]
50.3 µM: [28]
62.6 µM: [20]
56.4 µM: [8]
35 µM: [17]
99.5 µM: [38]
66.6 µM: [39]
94.1 µM: [42]
70.2 µM: [2]
not listed: [44] | [45] | [46] | [47] | [48] | [49] | [50] | [51] | [52] | [53] | [54] | [55] | [56] | [57] | [58]
> 100 µM: all other assays above

O=C(NN1C(=O)C(Cl)C1c1ccccc1O)c1ccccc1O (stereo unspecified)
55.2 µM: [39]
48.7 µM: [20]
70.6 µM: [28]
63.8 µM: [6]
57.9 µM: [23]
43.3 µM: [35]
not listed: [5] | [7] | [11] | [16] | [18] | [22] | [30] | [36] | [40] | [53] | [54] | [55] | [56] | [57] | [58]
> 100 µM: all other assays above

C[C@H]1CC[P+](Cc2ccccc2)(c2ccccc2)C1 (stereo partly specified)
89.9 µM: [48]
80.2 µM: [15]
not listed: [11] | [30] | [37] | [52] | [58]
> 100 µM: all other assays above

CC1=CC2C(C=C1)S(=O)(=O)N1CC21c1ccccc1 (stereo unspecified)
not listed: [10] | [11] | [19] | [26] | [31] | [55]
> 100 µM: all other assays above
